Tests used:
[1] = tested on: CD8+ T cells of healthy HLA-A*02+ donors; assay: In vitro immunogenicity: priming of CD8+ T cells with aAPCs loaded with HLA-A*02/peptide complexes and anti-CD28, multimer staining; format: cell-based, human; conditions: HLA-A*02 peptides of Table 12B
Description: CD8+ T cells were primed using artificial APCs coated with anti-CD28 mAb and HLA-A*02 in complex with SEQ ID NO: 2 peptide (FIG. 4A, left panel), SEQ ID NO: 9 peptide (FIG. 4B, left panel) and SEQ ID NO: 331 peptide (FIG. 4C, left panel), respectively. After three cycles of stimulation, the detection of peptide-reactive cells was performed by 2D multimer staining with A*02/SEQ ID NO: 2 (A), A*02/SEQ ID NO: 9 (B) or A*02/SEQ ID NO: 331 (C). Right panels (FIGS. 4A, 4B and 4C) show control staining of cells stimulated with irrelevant A*02/peptide complexes. Viable singlet cells were gated for CD8+ lymphocytes. Boolean gates helped excluding false-positive events detected with multimers specific for different peptides. Frequencies of specific multimer+ cells among CD8+ lymphocytes are indicated.
In order to obtain information regarding the immunogenicity of the TUMAPs of the present invention, the inventors performed investigations using an in vitro T-cell priming assay based on repeated stimulations of CD8+ T cells with artificial antigen presenting cells (aAPCs) loaded with peptide/MHC complexes and anti-CD28 antibody.
In order to perform in vitro stimulations by artificial antigen presenting cells loaded with peptide-MHC complex (pMHC) and anti-CD28 antibody, the inventors first isolated CD8+ T cells from fresh HLA-A*02 leukapheresis products via positive selection using CD8 microbeads (Miltenyi Biotec, Bergisch-Gladbach, Germany) of healthy donors obtained from the University clinics Mannheim, Germany, after informed consent.
PBMCs and isolated CD8+ lymphocytes were incubated in T-cell medium (TCM) until use consisting of RPMI-Glutamax (Invitrogen, Karlsruhe, Germany) supplemented with 10% heat inactivated human AB serum (PAN-Biotech, Aidenbach, Germany), 100 U/ml Penicillin/100 μg/ml Streptomycin (Cambrex, Cologne, Germany), 1 mM sodium pyruvate (CC Pro, Oberdorla, Germany), 20 μg/ml Gentamycin (Cambrex). 2.5 ng/ml IL-7 (PromoCell, Heidelberg, Germany) and 10 U/ml IL-2 (Novartis Pharma, Nurnberg, Germany) were also added to the TCM at this step.
Generation of pMHC/anti-CD28 coated beads, T-cell stimulations and readout was performed in a highly defined in vitro system using four different pMHC molecules per stimulation condition and 8 different pMHC molecules per readout condition.
The purified co-stimulatory mouse IgG2a anti human CD28 Ab 9.3 (Jung et al., 1987) was chemically biotinylated using Sulfo-N-hydroxysuccinimidobiotin as recommended by the manufacturer (Perbio, Bonn, Germany). Beads used were 5.6 μm diameter streptavidin coated polystyrene particles (Bangs Laboratories, Illinois, USA).
pMHC used for positive and negative control stimulations were A*0201/MLA-001 (peptide […] (SEQ ID NO. 418) from modified Melan-A/MART-1) and A*0201/DDX5-001 ([…] from DDX5, SEQ ID NO. 419), respectively.
800.000 beads/200 μl were coated in 96-well plates in the presence of 4×12.5 ng different biotin-pMHC, washed and 600 ng biotin anti-CD28 were added subsequently in a volume of 200 μl. Stimulations were initiated in 96-well plates by co-incubating 1×10^6 CD8+ T cells with 2×10^5 washed coated beads in 200 μl TCM supplemented with 5 ng/ml IL-12 (PromoCell) for 3 days at 37° C. Half of the medium was then exchanged by fresh TCM supplemented with 80 U/ml IL-2 and incubating was continued for 4 days at 37° C. This stimulation cycle was performed for a total of three times. For the pMHC multimer readout using 8 different pMHC molecules per condition, a two-dimensional combinatorial coding approach was used as previously described (Andersen et al., 2012) with minor modifications encompassing coupling to 5 different fluorochromes. Finally, multimeric analyses were performed by staining the cells with Live/dead near IR dye (Invitrogen, Karlsruhe, Germany), CD8-FITC antibody clone SKI (BD, Heidelberg, Germany) and fluorescent pMHC multimers. For analysis, a BD LSRII SORP cytometer equipped with appropriate lasers and filters was used. […]

HLA-A*02 = HLA-A*02 (Homo sapiens, UniProt P04439, D140Y/D185E/D98H/E176V/E277Q/G131W/G231S/I119V/I121R/I166T/I218V/N151K/N90K/P208A/P217A/Q86G/Q94H/R138H/R169H); assay: MHC binding assay: UV-ligand exchange, beta2m ELISA (peptide exchange yield); conditions: binding to HLA-A*02, β2m ELISA

For “331 (AIWKELISL; listed as Homo sapiens) [compound 331]”, the “Wells positive [%]” value [1] was “++ (20%-49% = ++)” and the “Peptide exchange (MHC class I binding score, peptide exchange yield)” value (HLA-A*02) was “+++ (50%-75% = +++)”.
